Test results published in patent publication US7125990B2, “Imidazolyl derivatives as corticotropin releasing factor inhibitors” (Bristol-Myers Squibb COmpany, priority 2001, dated 2006).

Target: T1, CRF1 receptors (Homo sapiens, UniProt P34998)
T1 construct: endogenous in cells; host or cells: IMR-32 cells, transformed with 2.5 µM 5'-bromo-2'-deoxyuridine for 10 days; membrane preparation
T1 sequence (P34998 24-415): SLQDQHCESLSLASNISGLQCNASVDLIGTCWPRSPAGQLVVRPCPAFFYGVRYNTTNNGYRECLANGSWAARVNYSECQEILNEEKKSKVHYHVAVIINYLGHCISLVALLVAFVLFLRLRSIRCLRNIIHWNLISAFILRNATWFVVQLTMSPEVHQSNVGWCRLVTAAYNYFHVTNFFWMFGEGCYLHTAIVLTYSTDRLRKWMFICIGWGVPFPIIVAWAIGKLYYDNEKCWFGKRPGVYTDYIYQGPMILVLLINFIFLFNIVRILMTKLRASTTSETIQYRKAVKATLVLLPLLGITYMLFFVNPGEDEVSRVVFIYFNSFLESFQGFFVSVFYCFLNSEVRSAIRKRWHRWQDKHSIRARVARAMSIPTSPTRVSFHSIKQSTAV
Test: CRF1 receptor radioligand binding assay ([125I]-oCRF competition, IMR-32 cell membranes)
Conditions: IMR-32 cell membranes, [125I]-oCRF 100 pM; read-out: Ki (CRF-1R)
Method in brief: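 Buffer: Tris pH 7.2 with MgCl2, BSA, Triton X-100, aprotinin, leupeptin; reaction stopped with ice-cold wash and filtered. Nonspecific binding set with 10 μM oCRF.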

Row | SMILES | Ki [nM]
1 | C=CCN(CCC)Cc1c(C(F)(F)F)nc2n1CCCN2c1c(C)cc(C)cc1C [Example 95, Allyl-propyl-[2-trifluoromethyl-8-(2,4,6-trimethyl-phenyl)-5,6,7,8-tetrahydro-imidazo[1,2-a]pyrimidin-3-ylmethyl]-amine] | < 100
2 | CCCN(Cc1c(C(F)(F)F)nc2n1CCCN2c1c(C)cc(C)cc1Cl)CC1CC1 [Example 96, [8-(2-Chloro-4,6-dimethyl-phenyl)-2-trifluoromethyl-5,6,7,8-tetrahydro-imidazo[1,2-a]pyrimidin-3-ylmethyl]-cyclopropylmethyl-propyl-amine] | < 100
3 | Cc1cc(C)c(N2CCCn3c2nc(C(F)(F)F)c3CN2CCOCC2)c(Cl)c1 [Example 97, 8-(2-Chloro-4,6-dimethyl-phenyl)-3-morpholin-4-ylmethyl-2-trifluoromethyl-5,6,7,8-tetrahydro-imidazo[1,2-a]pyrimidine] | < 1000
4 | Cc1cc(C)c(N2CCCn3c2nc(C(F)(F)F)c3CN2CCSCC2)c(Cl)c1 [Example 98, 8-(2-Chloro-4,6-dimethyl-phenyl)-3-thiomorpholin-4-ylmethyl-2-trifluoromethyl-5,6,7,8-tetrahydro-imidazo[1,2-a]pyrimidine] | < 1000
5 | Cc1cc(C)c(N2CCCn3c2nc(C(F)(F)F)c3CN2CCCCC2)c(Cl)c1 [Example 99, 8-(2-Chloro-4,6-dimethyl-phenyl)-3-piperidin-1-ylmethyl-2-trifluoromethyl-5,6,7,8-tetrahydro-imidazo[1,2-a]pyrimidine] | < 1000
6 | Cc1cc(C)c(N2CCCn3c2nc(C(F)(F)F)c3CN2CCCCC2C)c(Cl)c1 (stereo not shown) [Example 100, 8-(2-Chloro-4,6-dimethyl-phenyl)-3-(2-methyl-piperidin-1-ylmethyl)-2-trifluoromethyl-5,6,7,8-tetrahydro-imidazo[1,2-a]pyrimidine] | < 1000
7 | Cc1cc(C)c(N2CCCn3c2nc(C(F)(F)F)c3CN2CCCC(C)C2)c(Cl)c1 (stereo not shown) [Example 101, 8-(2-Chloro-4,6-dimethyl-phenyl)-3-(3-methyl-piperidin-1-ylmethyl)-2-trifluoromethyl-5,6,7,8-tetrahydro-imidazo[1,2-a]pyrimidine] | < 1000
8 | Cc1cc(C)c(N2CCCn3c2nc(C(F)(F)F)c3CN2CCC(C)CC2)c(Cl)c1 [Example 102, 8-(2-Chloro-4,6-dimethyl-phenyl)-3-(4-methyl-piperidin-1-ylmethyl)-2-trifluoromethyl-5,6,7,8-tetrahydro-imidazo[1,2-a]pyrimidine] | < 1000
9 | C=CCN(CC=C)Cc1c(C(F)(F)F)nc2n1CCCN2c1c(C)cc(C)cc1Cl [Example 103, Diallyl-[8-(2-chloro-4,6-dimethyl-phenyl)-2-trifluoromethyl-5,6,7,8-tetrahydro-imidazo[1,2-a]pyrimidin-3-ylmethyl]-amine] | < 100
10 | CCCCN(C)Cc1c(C(F)(F)F)nc2n1CCCN2c1c(C)cc(C)cc1Cl [Example 104, Butyl-[8-(2-chloro-4,6-dimethyl-phenyl)-2-trifluoromethyl-5,6,7,8-tetrahydro-imidazo[1,2-a]pyrimidin-3-ylmethyl]-methyl-amine] | < 1000
11 | CCCCN(Cc1ccccc1)Cc1c(C(F)(F)F)nc2n1CCCN2c1c(C)cc(C)cc1Cl [Example 105, Benzyl-butyl-[8-(2-chloro-4,6-dimethyl-phenyl)-2-trifluoromethyl-5,6,7,8-tetrahydro-imidazo[1,2-a]pyrimidin-3-ylmethyl]-amine] | < 1000
12 | C=C(C)CN(CC)Cc1c(C(F)(F)F)nc2n1CCCN2c1c(C)cc(C)cc1Cl [Example 106, [8-(2-Chloro-4,6-dimethyl-phenyl)-2-trifluoromethyl-5,6,7,8-tetrahydro-imidazo[1,2-a]pyrimidin-3-ylmethyl]-ethyl-(2-methyl-allyl)-amine] | < 1000
13 | Cc1cc(C)c(N2CCCn3c2nc(C(F)(F)F)c3CN(C)Cc2ccccc2)c(Cl)c1 [Example 107, Benzyl-[8-(2-chloro-4,6-dimethyl-phenyl)-2-trifluoromethyl-5,6,7,8-tetrahydro-imidazo[1,2-a]pyrimidin-3-ylmethyl]-methyl-amine] | < 1000
14 | CCCCN(CC)Cc1c(C(F)(F)F)nc2n1CCCN2c1c(C)cc(C)cc1Cl [Example 108, Butyl-[8-(2-chloro-4,6-dimethyl-phenyl)-2-trifluoromethyl-5,6,7,8-tetrahydro-imidazo[1,2-a]pyrimidin-3-ylmethyl]-ethyl-amine] | < 1000
15 | CCCN(CCC)Cc1c(C(F)(F)F)nc2n1CCCN2c1c(C)cc(C)cc1Cl [Example 109, [8-(2-Chloro-4,6-dimethyl-phenyl)-2-trifluoromethyl-5,6,7,8-tetrahydro-imidazo[1,2-a]pyrimidin-3-ylmethyl]-dipropyl-amine] | < 1000
16 | CCCN(CCOC)Cc1c(C(F)(F)F)nc2n1CCCN2c1c(C)cc(C)cc1Cl [Example 110, [8-(2-Chloro-4,6-dimethyl-phenyl)-2-trifluoromethyl-5,6,7,8-tetrahydro-imidazo[1,2-a]pyrimidin-3-ylmethyl]-(2-methoxy-ethyl)-propyl-amine] | < 1000
17 | CCCN(Cc1c(C(F)(F)F)nc2n1CCCN2c1c(C)cc(C)cc1Cl)CC1CCC1 [Example 111, [8-(2-Chloro-4,6-dimethyl-phenyl)-2-trifluoromethyl-5,6,7,8-tetrahydro-imidazo[1,2-a]pyrimidin-3-ylmethyl]-cyclobutylmethyl-propyl-amine] | < 1000
18 | Cc1cc(C)c(N2CCCn3c2nc(C(F)(F)F)c3CN(CC2CCC2)CC(F)(F)F)c(Cl)c1 [Example 112, [8-(2-Chloro-4,6-dimethyl-phenyl)-2-trifluoromethyl-5,6,7,8-tetrahydro-imidazo[1,2-a]pyrimidin-3-ylmethyl]-cyclobutylmethyl-(2,2,2-trifluoro-ethyl)-amine] | < 100
19 | CCN(Cc1c(C(F)(F)F)nc2n1CCCN2c1c(C)cc(C)cc1Cl)CC1CC1 [Example 113, [8-(2-Chloro-4,6-dimethyl-phenyl)-2-trifluoromethyl-5,6,7,8-tetrahydro-imidazo[1,2-a]pyrimidin-3-ylmethyl]-cyclopropylmethyl-ethyl-amine] | < 100
20 | CCCN(Cc1c(C(F)(F)F)nc2n1CCCN2c1c(C)cc(C)cc1Cl)CC(F)(F)F [Example 114, [8-(2-Chloro-4,6-dimethyl-phenyl)-2-trifluoromethyl-5,6,7,8-tetrahydro-imidazo[1,2-a]pyrimidin-3-ylmethyl]-propyl-(2,2,2-trifluoro-ethyl)-amine] | < 1000
21 | Cc1cc(C)c(N2CCCn3c2nc(C(F)(F)F)c3CN(CC2CC2)CC(F)(F)C(F)(F)F)c(Cl)c1 [Example 115, [8-(2-Chloro-4,6-dimethyl-phenyl)-2-trifluoromethyl-5,6,7,8-tetrahydro-imidazo[1,2-a]pyrimidin-3-ylmethyl]-cyclopropylmethyl-(2,2,3,3,3-pentafluoro-propyl)-amine] | < 100
22 | CCCN(CCC(F)(F)F)Cc1c(C(F)(F)F)nc2n1CCCN2c1c(C)cc(C)cc1Cl [Example 116, [8-(2-Chloro-4,6-dimethyl-phenyl)-2-trifluoromethyl-5,6,7,8-tetrahydro-imidazo[1,2-a]pyrimidin-3-ylmethyl]-propyl-(3,3,3-trifluoro-propyl)-amine] | < 1000
23 | CCCN(Cc1c(C(F)(F)F)nc2n1CCCN2c1c(C)cc(C)cc1Cl)CC(F)(F)C(F)(F)F [Example 117, [8-(2-Chloro-4,6-dimethyl-phenyl)-2-trifluoromethyl-5,6,7,8-tetrahydro-imidazo[1,2-a]pyrimidin-3-ylmethyl]-(2,2,3,3,3-pentafluoro-propyl)-propyl-amine] | < 1000
24 | Cc1cc(C)c(N2CCCn3c2nc(C(F)(F)F)c3CN(CCc2ccccc2)CCC(F)(F)F)c(Cl)c1 [Example 118, [8-(2-Chloro-4,6-dimethyl-phenyl)-2-trifluoromethyl-5,6,7,8-tetrahydro-imidazo[1,2-a]pyrimidin-3-ylmethyl]-phenethyl-(3,3,3-trifluoro-propyl)-amine] | < 1000
25 | Cc1cc(C)c(N2CCCn3c2nc(C(F)(F)F)c3CN(CCc2ccccc2)CC(F)(F)F)c(Cl)c1 [Example 119, [8-(2-Chloro-4,6-dimethyl-phenyl)-2-trifluoromethyl-5,6,7,8-tetrahydro-imidazo[1,2-a]pyrimidin-3-ylmethyl]-phenethyl-(2,2,2-trifluoro-ethyl)-amine] | < 1000
26 | CCN(CCc1ccccc1)Cc1c(C(F)(F)F)nc2n1CCCN2c1c(C)cc(C)cc1Cl [Example 120, [8-(2-Chloro-4,6-dimethyl-phenyl)-2-trifluoromethyl-5,6,7,8-tetrahydro-imidazo[1,2-a]pyrimidin-3-ylmethyl]-ethyl-phenethyl-amine] | < 1000
27 | CCCN(CCc1ccccc1)Cc1c(C(F)(F)F)nc2n1CCCN2c1c(C)cc(C)cc1Cl [Example 121, [8-(2-Chloro-4,6-dimethyl-phenyl)-2-trifluoromethyl-5,6,7,8-tetrahydro-imidazo[1,2-a]pyrimidin-3-ylmethyl]-phenethyl-propyl-amine] | < 1000
28 | Cc1cc(C)c(N2CCCn3c2nc(C(F)(F)F)c3CN(CCC2CC2)CCC(F)(F)F)c(Cl)c1 [Example 122, [8-(2-Chloro-4,6-dimethyl-phenyl)-2-trifluoromethyl-5,6,7,8-tetrahydro-imidazo[1,2-a]pyrimidin-3-ylmethyl]-(2-cyclopropyl-ethyl)-(3,3,3-trifluoro-propyl)-amine] | < 1000
